This note sets out measurements from patent publication US7307166B1, “Oxpurine nucleosides and their congeners, and acyl, derivatives thereof, for improvement of hematopoiesis” (Wellstat Therapeutics Corporation, priority 1987, dated 2007).

Holding throughout (assay type): in vivo, mouse
The subject of one experiment is male CDF8F1 mice. Nature of the experiment: Doxorubicin-induced myelosuppression. Here is the method: Doxorubicin (Adriamycin) is a widely-used anticancer agent effective against breast carcinoma, sarcomas, small-cell lung cancer, ovarian cancer, thyroid cancer, Hodgkin's Disease and non-Hodgkins lymphoma. Its clinical application is limited by its cardiac and hematologic toxicities. A study was conducted to assess the effect of N^2 3′,5′-tripalmitoyldeoxyguanosine (PdG) in reducing the hematologic toxicity of doxorubicin. Eighty male CDF8F1 mice were divided into three groups. One group received no treatment and served as basal control animals. Animals in the other two groups were each given a single dose of doxorubicin at a dose of 11 mg/kg by intraperitoneal injection. Beginning 24 hours later, animals in the two groups received three daily doses by intraperitoneal injection of either PdG or vehicle only. Blood samples were obtained by retro-orbital eye bleed just prior to administration of doxorubicin and then 4, 8, 11 and 14 days thereafter. Complete blood cell counts with differential were determined.

Another experiment has as its system interleukin-6. The experiment can be described thus: LPS-induced elevation of serum interleukin-6. As to conditions: PdG 25 mg/kg i.p. Here is the method:
Sixty-three female Balb/C mice were randomly assigned to one of three groups. The animals in one group received a single daily dose of N^2,3′,5′-tripalmitoyldeoxyguanosine (PdG) (25 mg/kg, i.p.), while a second group received a single daily dose of the PdG treatment vehicle (control). The third group was left untreated. On the fourth day 100 μg salmonella typhimurium LPS was administered to all three groups. Serum samples were taken just prior to LPS administration (t=0) and at two, four, six, eight, ten, twelve, sixteen, and twenty hours after LPS administration. The samples were then frozen until the time of assay. Serum levels of TNF-alpha, and IFN-gamma were measured by ELISA.
PdG also attenuated LPS-induced elevation of serum interleukin-1-alpha and interleukin-6.

In another experiment the test system is Balb/C female mice. The experiment can be described thus: Hematopoietic recovery after cyclophosphamide in mice (spleen weight, blood cell counts).
Setting [1] is: Day 4 after doxorubicin 11 mg/kg.
The mark [2] stands for this setting: Day 8 after doxorubicin 11 mg/kg.
Setting [3] is: Day 14 after doxorubicin 11 mg/kg.

For `CCCCCCCCCCCCCCCC(=O)Nc1nc2c(ncn2[C@H]2C[C@H](OC(=O)CCCCCCCCCCCCCCC)[C@@H](COC(=O)CCCCCCCCCCCCCCC)O2)c(=O)[nH]1` [PdG, 3′,5′-O-N^2-tripalmitoyl-2′-deoxyguanosine], the figures for the Lymphocytes in the experiment with male CDF8F1 mice (setting [1]), in the experiment on male CDF8F1 mice (setting [2]) and in the experiment on male CDF8F1 mice (setting [3]) were 8.07 ± 1.21 K/μL, 1.63 ± 0.13 K/μL and 2.0 ± 0.15 K/μL, respectively. Besides, the Neutrophils in the experiment on male CDF8F1 mice (setting [1]) came to 4.35 ± 0.73 K/μL; with male CDF8F1 mice (setting [2]), 2.47 ± 0.28 K/μL; with male CDF8F1 mice (setting [3]), 2.3 ± 0.26 K/μL. The WBC turned out to be 13.2 ± 1.59 K/μL in the experiment on male CDF8F1 mice (Day 4 after doxorubicin 11 mg/kg i.p., PdG 3 daily i.p. doses from 24 h after); 4.57 ± 0.35 K/μL in the experiment with male CDF8F1 mice (setting [2]); 3.95 ± 0.42 K/μL with male CDF8F1 mice (Day 11 after doxorubicin 11 mg/kg); 5.0 ± 0.39 K/μL with male CDF8F1 mice (setting [3]). For the same compound, the “LPS-induced elevation of serum interleukin-6” value in the experiment on interleukin-6 was “attenuated”.

`CCCCCCCCCCCCCCCC(=O)OC[C@H]1O[C@@H](n2cnc3c(=O)[nH]c(N)nc32)[C@H](O)[C@@H]1O`: the spleen weight entry in the experiment on Balb/C female mice (Ex 38: day 7 after CP, guanosine 5, acyl derivatives 2.5 μmoles/mouse/day in 0.2% Tween 80 i.p. 6 days, Tween 80 0.2%) is “significantly larger spleens”. Besides, in the experiment on Balb/C female mice (Ex 41: day 7 after CP, treatment on only days 1 and 2, vs saline or Tween 80), the total neutrophils entry is listed as “significant increase”. The platelet number entry with Balb/C female mice (Ex 47: day 10 after CP, 2.5 μmoles/mouse/day) is “significantly greater”.
